# Results reported in patent publication US4061645A, “2-Trichloromethyl-5-methylsulfinyl-1,3,4-thiadiazole” (Schering Aktiengesellschaft, priority 1972, dated 1977).
# What was measured:
# Botrytis cinerea = experiment: Agar test (Example 7), Botrytis; assay type: cell-based; conditions: 10 ppm; 5 days at 22° C; control 100
# Method in brief: (§1)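 Compound mixed into sterilised 2% malt extract/1.5% agar before solidification at 10 ppm. Plates inoculated with 100 spores of each fungus; colony diameter (mm) measured after five days at 22° C.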
# Rhizoctonia solani [1] = experiment: Rhizoctonia solani infested compost soil, marrow peas (Example 3); assay type: in vivo; conditions: for Weight of fresh plant: 3 weeks; for Number of sound peas after 3 wks.: of 25 grains
# From the text: Steamed compost soil was inoculated with mycelium of Rhizoctonia solani. After homogeneous mixture of the products with the infested soil, the products were present in the form of 20% powder preparations, the seeding of 25 grains of marrow peas of the variety "Miracle of Kelvedon" per concentration was effected without waiting period in clay dishes holding 1 liter of soil. The table lists the number of germinated sound peas, the weight of the fresh plant, and a root evaluation after a cultivation period of three weeks at 22°-25° C.
# Helminthosporium sativum = experiment: Agar test (Example 7), Helminthosporium; assay type: cell-based; conditions: 10 ppm; 5 days at 22° C; control 100
# Method in brief: as §1
# Damping-off Fungi = experiment: Cotton seed disinfection, normal compost soil (Example 6); assay type: in vivo; conditions: 100 mg active ingr. per kg of seed; 10% formulation; 15 days
# Method: Cotton seeds disinfected with 10% formulations were seeded in normal compost soil (Damping-off Fungi), 25 grains per concentration. After a cultivation time of 15 days at 22°-25° C, the number of germinated sound cotton seedlings and their weight as fresh plants were determined.
# Pythium ultimum [2] = experiment: Fungistatic and fungicidal action on Pythium ultimum with varying active ingredient percentages (Example 4); assay type: in vivo
# From the text: Comparison of the fungistatic and fungicidal action on Pythium ultimum when using preparations with varyng active ingredient percentages on siliceous clay. Steamed compost soil was inoculated with mycelium of Pythium ultimum. After forming a homogeneous mixture of the products with the infested soil, […], the seeding of 25 grains of marrow peas of the variety "Miracle of Kelvedon" per concentration in clay dishes holding 1 liter of soil followed without a waiting period. In the table is stated the fresh number of germinated sound peas, the weight of the fresh plant, and a root evaluation after a cultivation period of three weeks at 22°-25° C.
# Stemphylium ilicis = experiment: Agar test (Example 7), Stemphylium; assay type: cell-based; conditions: 10 ppm; 5 days at 22° C; control 100
# Method in brief: as §1
# [3] = test system: Colletotrichum gloeosporioides; experiment: Agar test (Example 7), Colletotrichum; assay type: cell-based; conditions: 10 ppm; 5 days at 22° C; control 100
# Method in brief: as §1
# Pyrenochaeta lycopersici = experiment: Control of Pyrenochaeta lycopersici, corky root disease of the tomato, open field (Example 9); assay type: in vivo; conditions: 10% granulate
# From the text: Control of Pyrenochaeta lycopersici, corky root disease of the tomato.
# On a naturally invested open field area, 2-dichloromethyl-5-methylsulfonyl-1,3,4-thiadiazole was scattered as a 10% granulate formulation and hoed in 20 cm deep. […] After a reaction period of three weeks, tomato plants of the variety "Ronald-M" which were 8 weeks old were set out at a distance from each other of 50 × 70 cm. The harvest results indicated in the table are average values of 40 plants per lot and refer to harvested ripe tomatoes.
# [4] = test system: Fusarium oxysporum f. callistephi; experiment: Fusarium infested compost soil, Callistephus chinesis seedlings (Example 5); assay type: in vivo; conditions: of 4 seedlings
# From the text: Steamed compost soil was inoculated with a spore suspension of Fusarium oxysporum f. callistephi. After homogeneous mixture of the products with the infested soil, the products were present as 20% powder preparations, and after a waiting period of 8 days, there were set out per concentration 4 seedlings of Callistephus chinesis, master aster "Sun Ray" as host plants.
# Pythium ultimum [5] = experiment: Pythium ultimum infested compost soil, marrow peas (Example 2); assay type: in vivo; conditions: for Weight of fresh plant: 3 weeks; for Number of sound peas after 3 wks.: of 25 grains
# From the text: Steamed compost soil was inoculated with mycelium of Pythium ultimum.
# Asperqilus niger = experiment: Agar test (Example 7), Aspergillus; assay type: cell-based; conditions: 10 ppm; 5 days at 22° C; control 100
# Method in brief: as §1
# Meloidogyne incognita = experiment: Nematocidal action, infested compost soil, cucumber seeds (Example 8); assay type: in vivo; conditions: 30 days
# Method: The products as 20% powder preparations were homogeneously admixed with a compost soil heavily infested by root gal nematodes. Without a waiting period, 20 cucumber seeds per concentration were seeded. After a cultivation time of 30 days at a temperature of 23°-25° C, the nematocidal action was evaluated by counting the root galls formed in the waterbath. The following table states the reduction of attack in percent. In the control, an average of 90 root galls per seedling had formed.
# Rhizoctonia solani [6] = experiment: Limit concentration of soil-fungicidal effectiveness, Rhizoctonia solani, infested soil seeded with peas (Example 1); assay type: in vivo; conditions: soil, 480 h, 20 to 23 days, 22°-25° C, read-out: Limit concentration of the fungicidal effectiveness
# Method in brief: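 Compound mixed homogeneously into steamed compost soil inoculated with Rhizoctonia solani mycelium, and 25 marrow pea seeds ("Miracle of Kelvedon") sown per concentration without a waiting period. Grown 20 to 23 days at 22°-25° C. Limit concentration is the lowest giving sound, necrosis-free roots and at least 90% germination relative to steamed soil.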
# [7] = 10 mg active ingr. per liter of soil
# [8] = 20 mg active ingr. per liter of soil
# [9] = 30 mg active ingr. per liter of soil
# [10] = 5% formulation, 6 mg active ingr. per liter of soil
# [11] = 5% formulation, 10 mg active ingr. per liter of soil
# [12] = 10% formulation, 6 mg active ingr. per liter of soil
# [13] = 10% formulation, 10 mg active ingr. per liter of soil
# [14] = 20% formulation, 6 mg active ingr. per liter of soil
# [15] = 20% formulation, 10 mg active ingr. per liter of soil
# [16] = 10 g active ingr. per square meter
# [17] = 20 g active ingr. per square meter
smiles,measurement,setting,value
"CS(=O)(=O)c1nnc(C(Cl)Cl)s1 [Compound 17, 2-dichloromethyl-5-methylsulfonyl-1,3,4-thiadiazole]",diameter of the colonies,Botrytis cinerea,0 mm
same,Weight of fresh plant,Rhizoctonia solani [1]; [7],0 g
same,Number of sound peas after 3 wks.,Rhizoctonia solani [1]; [7],0
same,Weight of fresh plant,Rhizoctonia solani [1]; [8],14 g
same,Number of sound peas after 3 wks.,Rhizoctonia solani [1]; [8],23
same,Weight of fresh plant,Rhizoctonia solani [1]; [9],14 g
same,Number of sound peas after 3 wks.,Rhizoctonia solani [1]; [9],22
same,diameter of the colonies,Helminthosporium sativum,0 mm
same,Sound plants in %,Damping-off Fungi,100%
same,Weight of fresh plant,Damping-off Fungi,23 g
same,Number of sound peas after 3 weeks,Pythium ultimum [2]; [10],12
same,Root evaluation (1-4),Pythium ultimum [2]; [10],1
same,Weight of fresh plant,Pythium ultimum [2]; [10],9 g
same,Number of sound peas after 3 weeks,Pythium ultimum [2]; [11],24
same,Root evaluation (1-4),Pythium ultimum [2]; [11],4
same,Weight of fresh plant,Pythium ultimum [2]; [11],20 g
same,Number of sound peas after 3 weeks,Pythium ultimum [2]; [12],24
same,Root evaluation (1-4),Pythium ultimum [2]; [12],1
same,Weight of fresh plant,Pythium ultimum [2]; [12],15 g
same,Number of sound peas after 3 weeks,Pythium ultimum [2]; [13],22
same,Root evaluation (1-4),Pythium ultimum [2]; [13],4
same,Weight of fresh plant,Pythium ultimum [2]; [13],24 g
same,Number of sound peas after 3 weeks,Pythium ultimum [2]; [14],22
same,Root evaluation (1-4),Pythium ultimum [2]; [14],2
same,Weight of fresh plant,Pythium ultimum [2]; [14],17 g
same,Number of sound peas after 3 weeks,Pythium ultimum [2]; [15],24
same,Root evaluation (1-4),Pythium ultimum [2]; [15],4
same,Weight of fresh plant,Pythium ultimum [2]; [15],16 g
same,diameter of the colonies,Stemphylium ilicis,0 mm
same,diameter of the colonies,[3],0 mm
same,"Tomatoes per plant, relative to 0 g",Pyrenochaeta lycopersici; [16],159%
same,"Weight of single tomato, relative to 0 g",Pyrenochaeta lycopersici; [16],110%
same,"Yield per plant, relative to 0 g",Pyrenochaeta lycopersici; [16],171%
same,"Tomatoes per plant, relative to 0 g",Pyrenochaeta lycopersici; [17],165%
same,"Weight of single tomato, relative to 0 g",Pyrenochaeta lycopersici; [17],130%
same,"Yield per plant, relative to 0 g",Pyrenochaeta lycopersici; [17],213%
same,Number of attacked plants after 3 weeks,[4]; 50 mg active ingredient per liter of soil,0
same,Number of attacked plants after 3 weeks,[4]; 100 mg active ingredient per liter of soil,0
same,Weight of fresh plant,Pythium ultimum [5]; [7],24 g
same,Number of sound peas after 3 wks.,Pythium ultimum [5]; [7],23
same,Weight of fresh plant,Pythium ultimum [5]; [8],22 g
same,Number of sound peas after 3 wks.,Pythium ultimum [5]; [8],24
same,Weight of fresh plant,Pythium ultimum [5]; [9],26 g
same,Number of sound peas after 3 wks.,Pythium ultimum [5]; [9],24
same,diameter of the colonies,Asperqilus niger,0 mm
same,Nematocidal action in % (reduction of attack),Meloidogyne incognita; 40 mg per liter of soil,90%
same,Nematocidal action in % (reduction of attack),Meloidogyne incognita; 60 mg per liter of soil,94%
same,minimal effective concentration,Rhizoctonia solani [6],20 µg/mL
